Experimental data taken from patent US9096524B2, “Anthelmintic agents and their use” (Intervet International B.V., priority 2009, dated 2015).
Read-outs that look alike come from different tables or passages of the source.

What was measured:
[1] = test system: A. galli (intestinal roundworm of chicken) larval stage 3; O. dentatum (nodular worm of swine) larval stages 3 and 4; assay: Activity against Ascaridia galli and Oesophagostomum dentatum larvae in vitro (minimum effective concentration); assay type: cell-based
Haemonchus contortus = assay: Efficacy against Haemonchus contortus in jirds; assay type: in vivo, jirds (Meriones unguiculatus); conditions: 72 h, read-out: % Reduction in H.
Procedure: Anthelmintic effects of compounds of this invention were tested in vivo using Haemonchus contuortus in jirds (Meriones unguiculatus). The jirds were orally infected with approximately 750-3,000 third-stage larvae of Haemonchus contortus. Ten days after infection, the jirds in the treatment groups were treated once orally or subcutaneously at a dose of 2, 10, and/or 50 mg per kg bodyweight. Three days after treatment, the jirds were necropsied, and the larvae burden in the stomach is determined. The efficacy is defined as the reduction of the mean larvae count in the jirds of the treatment groups in comparison to the infected jirds in the untreated negative control group.

[2] = read-out: MEC (minimum effective concentration) against one or more of the tested nematodes, in vitro, one or more of A. galli L3, O. dentatum L3, L4, threshold 1 μM
[3] = read-out: MEC (minimum effective concentration) against one or more of the tested nematodes, in vitro, one or more of A. galli L3, O. dentatum L3, L4, threshold 7 μM
[4] = read-out: MEC (minimum effective concentration) against two or more of the tested nematodes, in vitro, two or more of A. galli L3, O. dentatum L3, L4, threshold 1 μM
[5] = jirds, 50 mg/kg, oral, single treatment, larvae burden in stomach 3 days after treatment
[6] = sc, jirds, 50 mg/kg, subcutaneous, single treatment, larvae burden in stomach 3 days after treatment

For `CSc1ccc(NC2CCN(C(=O)CCCN3CCN(c4ccc(C(F)(F)F)cc4)CC3)CC2)cc1C(F)(F)F` [Example 5, 1-[4-(4-methylsulfanyl-3-trifluoromethyl-phenylamino)-piperidin-1-yl]-4-[4-(4-trifluoromethyl-phenyl)-piperazin-1-yl]-butan-1-one], which minimal effective concentration [1, 2] is on record?
The minimal effective concentration was < 1 µM.

What about the minimal effective concentration [1, 3] of the same compound?
Its minimal effective concentration is < 7 µM.

And the minimal effective concentration [1, 4]?
The minimal effective concentration was < 1 µM.

And the inhibition in vivo at 50 mg/kg (Haemonchus contortus; po)?
Its inhibition in vivo at 50 mg/kg is 87%.

What about the inhibition in vivo at 50 mg/kg (Haemonchus contortus; sc) of the same compound?
Its inhibition in vivo at 50 mg/kg is 99%.

Which minimal effective concentration [1, 2] does the source give for `N#Cc1cccc(NC2CCN(C(=O)CCCN3CCN(c4ccc(C(F)(F)F)cc4)CC3)CC2)c1` [Example 7, 3-(1-{4-[4-(4-trifluoromethyl-phenyl)-piperazin-1-yl]-butyryl}-piperidin-4-ylamino)-benzonitrile] here?
Its minimal effective concentration is < 1 µM.

And the minimal effective concentration [1, 3]?
Its minimal effective concentration is < 7 µM.

What about the minimal effective concentration [1, 4] of the same compound?
The minimal effective concentration was < 1 µM.

What about the inhibition in vivo at 50 mg/kg (Haemonchus contortus; po) of the same compound?
Its inhibition in vivo at 50 mg/kg is 99%.

What about the inhibition in vivo at 50 mg/kg (Haemonchus contortus; sc) of the same compound?
The inhibition in vivo at 50 mg/kg was 98%.

`O=C(COC1CCN(c2ccc(C(F)(F)F)cc2)CC1)N1CCC(Nc2ccc([N+](=O)[O-])c(C(F)(F)F)c2)CC1` [Example 12, 1-[4-(4-nitro-3-trifluoromethyl-phenylamino)-piperidin-1-yl]-2-[1-(4-trifluoromethyl-phenyl)-piperidin-4-yloxy]-ethanone] was tested. Which minimal effective concentration [1, 2] did it give?
The minimal effective concentration was < 1 µM.

What about the minimal effective concentration [1, 3] of the same compound?
The minimal effective concentration was < 7 µM.

What about the minimal effective concentration [1, 4] of the same compound?
Its minimal effective concentration is < 1 µM.

And the inhibition in vivo at 50 mg/kg (Haemonchus contortus; po)?
The inhibition in vivo at 50 mg/kg was 96%.

What about the inhibition in vivo at 50 mg/kg (Haemonchus contortus; sc) of the same compound?
The inhibition in vivo at 50 mg/kg was 100%.

Which results are given for `O=C(CCN1CCC(c2ccc(C(F)(F)F)cc2)CC1)N1CCC(Nc2ccc([N+](=O)[O-])c(C(F)(F)F)c2)CC1` [Example 14, 1-[4-(4-nitro-3-trifluoromethyl-phenylamino)-piperidin-1-yl]-3-[4-(4-trifluoromethyl-phenyl)-piperidin-1-yl]-propan-1-one]?
minimal effective concentration [1, 2]: < 1 µM; minimal effective concentration [1, 3]: < 7 µM; minimal effective concentration [1, 4]: < 1 µM; inhibition in vivo at 50 mg/kg (Haemonchus contortus; po): 87%; inhibition in vivo at 50 mg/kg (Haemonchus contortus; sc): 99%

What does the source list for `O=C(CCCN1CCN(c2ccc(C(F)(F)F)cc2)CC1)N1CCC(Nc2ccc(Cl)c(SC(F)(F)F)c2)CC1` [Example 17, 1-[4-(4-chloro-3-trifluoromethylsulfanyl-phenylamino)-piperidin-1-yl]-4-[4-(4-trifluoromethyl-phenyl)-piperazin-1-yl]-butan-1-one]?
minimal effective concentration [1, 2]: < 1 µM; minimal effective concentration [1, 3]: < 7 µM; minimal effective concentration [1, 4]: < 1 µM; inhibition in vivo at 50 mg/kg (Haemonchus contortus; po): 100%; inhibition in vivo at 50 mg/kg (Haemonchus contortus; sc): 96%

Which results are given for `Cn1nnc(-c2ccc(NC3CCN(C(=O)CCCN4CCN(c5ccc(C(F)(F)F)cc5)CC4)CC3)cc2)n1` [Example 21, 1-{4-[4-(2-methyl-1H-tetrazol-5-yl)-phenylamino]-piperidin-1-yl}-4-[4-(4-trifluoromethyl-phenyl)-piperazin-1-yl]-butan-1-one]?
minimal effective concentration [1, 2]: < 1 µM; minimal effective concentration [1, 3]: < 7 µM; minimal effective concentration [1, 4]: < 1 µM; inhibition in vivo at 50 mg/kg (Haemonchus contortus; po): 95%; inhibition in vivo at 50 mg/kg (Haemonchus contortus; sc): 38%

`O=C(CCN1CCN(c2ccc(OCc3ccccc3)cc2)CC1)N1CCC(Nc2ccc([N+](=O)[O-])c(C(F)(F)F)c2)CC1` [Example 23, 3-[4-(4-benzyloxy-phenyl)-piperazin-1-yl]-1-[4-(4-nitro-3-trifluoromethyl-phenylamino)-piperidin-1-yl]-propan-1-one] was tested. Which minimal effective concentration [1, 2] did it give?
Its minimal effective concentration is < 1 µM.

And the minimal effective concentration [1, 3]?
Its minimal effective concentration is < 7 µM.

What about the minimal effective concentration [1, 4] of the same compound?
Its minimal effective concentration is < 1 µM.

What about the inhibition in vivo at 50 mg/kg (Haemonchus contortus; po) of the same compound?
Its inhibition in vivo at 50 mg/kg is 66%.

What about the inhibition in vivo at 50 mg/kg (Haemonchus contortus; sc) of the same compound?
Its inhibition in vivo at 50 mg/kg is 92%.

For `CC(C)COc1ccc(N2CCN(CCC(=O)N3CCC(Nc4ccc([N+](=O)[O-])c(C(F)(F)F)c4)CC3)CC2)cc1` [Example 26, 3-[4-(4-isobutoxy-phenyl)-piperazin-1-yl]-1-[4-(4-nitro-3-trifluoromethyl-phenylamino)-piperidin-1-yl]-propan-1-one], which minimal effective concentration [1, 2] is on record?
Its minimal effective concentration is < 1 µM.

What about the minimal effective concentration [1, 3] of the same compound?
Its minimal effective concentration is < 7 µM.

What about the minimal effective concentration [1, 4] of the same compound?
Its minimal effective concentration is < 1 µM.

And the inhibition in vivo at 50 mg/kg (Haemonchus contortus; po)?
The inhibition in vivo at 50 mg/kg was 64%.

And the inhibition in vivo at 50 mg/kg (Haemonchus contortus; sc)?
Its inhibition in vivo at 50 mg/kg is 91%.

With `CS(=O)(=O)c1ccc(NC2CCN(C(=O)CCCN3CCN(c4ccc(C(F)(F)F)cc4)CC3)CC2)cc1C(F)(F)F` [Example 30, 1-[4-(4-methanesulfonyl-3-trifluoromethyl-phenylamino)-piperidin-1-yl]-4-[4-(4-trifluoromethyl-phenyl)-piperazin-1-yl]-butan-1-one] as the compound, how does the minimal effective concentration [1, 2] read?
Its minimal effective concentration is < 1 µM.

And the minimal effective concentration [1, 3]?
The minimal effective concentration was < 7 µM.

And the minimal effective concentration [1, 4]?
The minimal effective concentration was < 1 µM.

And the inhibition in vivo at 50 mg/kg (Haemonchus contortus; po)?
Its inhibition in vivo at 50 mg/kg is 62%.

What about the inhibition in vivo at 50 mg/kg (Haemonchus contortus; sc) of the same compound?
The inhibition in vivo at 50 mg/kg was 69%.

For `O=C(CCCN1CCN(c2ccc(C(F)(F)F)cc2)CC1)N1CCC(Nc2ccc(S(=O)(=O)c3ccc(F)cc3)cc2)CC1` [Example 33, 1-{4-[4-(4-fluoro-benzenesulfonyl)-phenylamino]-piperidin-1-yl}-4-[4-(4-trifluoromethyl-phenyl)-piperazin-1-yl]-butan-1-one], which minimal effective concentration [1, 2] is on record?
Its minimal effective concentration is < 1 µM.

What about the minimal effective concentration [1, 3] of the same compound?
Its minimal effective concentration is < 7 µM.

What about the minimal effective concentration [1, 4] of the same compound?
Its minimal effective concentration is < 1 µM.

What about the inhibition in vivo at 50 mg/kg (Haemonchus contortus; po) of the same compound?
The inhibition in vivo at 50 mg/kg was 55%.

And the inhibition in vivo at 50 mg/kg (Haemonchus contortus; sc)?
Its inhibition in vivo at 50 mg/kg is 69%.

How did the inhibition in vivo at 50 mg/kg (Haemonchus contortus; [5]) turn out when `CC(CN1CCN(c2ccc(C(F)(F)F)cc2)CC1)C(=O)N1CCC(Nc2ccc(C#N)c(C(F)(F)F)c2)CC1` (stereo not shown) [Example 92, 4-(1-{2-methyl-3-[4-(4-trifluoromethyl-phenyl)-piperazin-1-yl]-propionyl}-piperidin-4-ylamino)-2-trifluoromethyl-benzonitrile] was run?
Its inhibition in vivo at 50 mg/kg is 100%.

What about the inhibition in vivo at 50 mg/kg (Haemonchus contortus; [6]) of the same compound?
The inhibition in vivo at 50 mg/kg was 91%.

What does the source list for `N#Cc1ccc(NC2CCN(C(=O)CCCN3CCN(c4ccc(C(F)(F)F)cn4)CC3)CC2)cc1C(F)(F)F` [Example 157, 2-trifluoromethyl-4-(1-{4-[4-(5-trifluoromethyl-pyridin-2-yl)-piperazin-1-yl]-butyryl}-piperidin-4-ylamino)-benzonitrile]?
inhibition in vivo at 10 mg/kg (Haemonchus contortus; jirds, oral, single treatment, larvae burden in stomach 3 days after treatment): 96%; inhibition in vivo at 10 mg/kg (Haemonchus contortus; sc, jirds, subcutaneous, single treatment, larvae burden in stomach 3 days after treatment): 93%

Which results are given for `CCOc1cc(NC2CCN(C(=O)CCN3CCC(c4ccc(Cl)cc4)CC3)CC2)ccc1[N+](=O)[O-]` [Example 414]?
inhibition in vivo at 50 mg/kg (Haemonchus contortus; [5]): 0%; inhibition in vivo at 50 mg/kg (Haemonchus contortus; [6]): 98%

How did the inhibition in vivo at 50 mg/kg (Haemonchus contortus; [5]) turn out when `CC(C)(C)c1ccc(N2CCC(OCC(=O)N3CCC(Nc4ccc([N+](=O)[O-])c(C(F)(F)F)c4)CC3)CC2)cc1` [Example 416] was run?
Its inhibition in vivo at 50 mg/kg is 88%.

And the inhibition in vivo at 50 mg/kg (Haemonchus contortus; [6])?
The inhibition in vivo at 50 mg/kg was 98%.

`CCCc1ccc(C2CCN(CCC(=O)N3CCC(Oc4ccc([N+](=O)[O-])c(OCC(C)C)c4)CC3)CC2)cc1` [Example 532] was tested. Which inhibition in vivo at 50 mg/kg (Haemonchus contortus; [5]) did it give?
The inhibition in vivo at 50 mg/kg was 90%.

And the inhibition in vivo at 50 mg/kg (Haemonchus contortus; [6])?
Its inhibition in vivo at 50 mg/kg is 99%.

What does the source list for `CC(C)COc1cc(OC2CCN(C(=O)CCN3CCC(c4ccc(C(C)(C)C)cc4)CC3)CC2)ccc1[N+](=O)[O-]` [Example 533]?
inhibition in vivo at 50 mg/kg (Haemonchus contortus; [5]): 83%; inhibition in vivo at 50 mg/kg (Haemonchus contortus; [6]): 74%

What does the source list for `O=C(NCC1CCN(c2ccc(C(F)(F)F)cc2)CC1)N1CCC(Nc2ccc([N+](=O)[O-])c(C(F)(F)F)c2)CC1` [Example 539]?
inhibition in vivo at 50 mg/kg (Haemonchus contortus; [5]): 82%; inhibition in vivo at 50 mg/kg (Haemonchus contortus; [6]): 73%

Which results are given for `CN(CC1CCN(c2ccccc2)CC1)C(=O)N1CCC(Nc2ccc([N+](=O)[O-])c(C(F)(F)F)c2)CC1` [Example 565]?
inhibition in vivo at 50 mg/kg (Haemonchus contortus; [5]): 70%; inhibition in vivo at 50 mg/kg (Haemonchus contortus; [6]): 90%

Which results are given for `Cc1ccc(N2CCC(CN(C)C(=O)N3CCC(Nc4ccc([N+](=O)[O-])c(C(F)(F)F)c4)CC3)CC2)cc1` [Example 566]?
inhibition in vivo at 50 mg/kg (Haemonchus contortus; [5]): 83%; inhibition in vivo at 50 mg/kg (Haemonchus contortus; [6]): 93%

With `CC(CN1CCN(c2ccc(Cl)cc2)CC1)C(=O)N1CCC(Nc2ccc(C#N)c(C(F)(F)F)c2)CC1` (stereo not shown) [Example 581] as the compound, how does the inhibition in vivo at 50 mg/kg (Haemonchus contortus; po) read?
The inhibition in vivo at 50 mg/kg was 68%.

And the inhibition in vivo at 50 mg/kg (Haemonchus contortus; sc)?
Its inhibition in vivo at 50 mg/kg is 10%.
